Measured values reported in paper PMC8398766, “Do Small Molecules Activate the TrkB Receptor in the Same Manner as BDNF? Limitations of Published TrkB Low Molecular Agonists and Screening for Novel TrkB Orthosteric Agonists” (Pharmaceuticals, 2021).
In brackets after ≈: the same amount, converted by molar mass. Entries after “also recorded” stand apart in the source; their conditions may differ. Blank lines part the entries; values can stand above or below the molecule they belong to.

How the values were obtained:
TrkB receptor = target: T1, TrkB receptor (Rattus norvegicus, UniProt Q63604); test: ELFI TrkB phosphorylation, orthosteric agonist mode, SN56 T48 cell line; assay type: cell-based; settings: 0.125–100 μM, 15 min
T1 construct: host or cells: SN56 T48 cell line
Method: The SN56 T48 cell line with stable overexpression of the TrkB receptor was purchased from Emory University (Atlanta, GA, USA) and cultivated according to the protocol described in Jang et al., 2010 [12]. The cell lines were cultivated with the following reagents: DMEM High Glucose, fetal bovine serum (FBS), Penicillin-Streptomycin Solution 100×, and Trypsin-EDTA 1×; all were purchased from Biowest, and G418 was from ThermoFisher Scientific. For the ELFI experiments, cells were seeded (8000/well) on a PDL-treated 96-well plate (BioCoat™, Corning Inc., Corning, NY, USA) and 6-well plate (400,000/well) for lysate collection and immunoblot analysis.
In the orthosteric agonist mode experiments, starved cells (5 h) were treated with compounds (0.125–100 μM; volume, 100 μL/well) or BDNF (0.01–10 nM; volume, 100 μL/well) dissolved in culture medium. In the allosteric modulation mode experiments, starved cells (5 h) were treated with final compound concentrations of 3, 10, and 30 μM; volume, 50 μL/well) in the presence of a rising concentration of BDNF (final concentration in well, 0.15–5 nM; volume, 50 μL/well). Corresponding treatment with DMSO (v/v) was performed for a control. Cells were treated for 15 min in both the orthosteric and allosteric modulation mode experiments.
The analysis of TrkB receptor activation was performed using the ELFI method adapted from Boltayev et al. (2017) with some modifications. After compound treatment, experiments were stopped by fixing cells with 10% buffered formalin (Kolchem, Lodz, Poland) for 20 min (volume, 100 μL/well). Afterwards, cells were permeabilized with washing buffer (TBS+ 0.1% Tween20) for 15 min, and endogenous peroxidases were quenched by 20 min of incubation with 1% H2O2 dissolved in TBS (each solution: volume, 100 μL/well). Epitopes were blocked with 10% BSA (Biowest) dissolved in washing buffer for 2 h (volume, 100 μL/well) and incubated with anti-pTrkB (Tyr707) primary antibody (Cell Signaling Technology, Danvers, MA, USA) diluted in washing buffer (1:500; overnight at 4 °C; volume, 100 μL/well). After repeated washing, cells were incubated with HRP-linked anti-rabbit antibody (Cell Signaling Technology) for 2 h (1:1000; RT; volume, 100 μL/well) and washed. The cells were then incubated with 100 μL of ImmunoCruz™ Western Blotting Luminol (Santa Cruz Biotechnology, Dallas, TX, USA) for 1 min in the dark, and the signals were measured using a microplate luminometer (VICTOR Light 1420-060, PerkinElmer®, Waltham, MA, USA). For non-specific binding, cells were treated, with the exception of primary antibody.

physchem = settings: 25 °C, pH 7.4, aqueous buffer, kinetic from dmso stock, pH 7.4, 4 h
ERK1/2 and Akt1 = test: Immunoblot, non-differentiated SH-SY5Y cells; assay type: cell-based
Method: The SH-SY5Y cell line was purchased from MilliporeSigma and cultured in growth medium: MEM (w/Earle’s Salts; w/L-Glutamine) + Ham’s F12 (w/L-Glutamine) (1:1 v/v), 1 × Antibiotic-Antimycotic, 1 × MEM Non-Essential Amino Acids (all reagents from Biowest, Riverside, MO, USA) and 15% FBS (Gibco, Thermo Fisher Scientific, Waltham, MA, USA). Cells were passaged using 0.25% Trypsin-EDTA (Biowest) and cultured in standard conditions (5% CO2, 37 °C with 95% relative humidity).
Compound treatment was stopped by lysing cells with N-PER™ Neuronal Protein Extraction Reagent (Thermo Fisher Scientific) containing 1 × PhosSTOP™ (Roche, Basel, Switzerland), 1 × Halt Protease Inhibitor Single-Use Cocktail (ThermoFisher Scientific) and 5 mM EDTA. The lysates were collected by scraping, and centrifuged (8000× g; 10 min at 4 °C), and the protein concentration was determined using a BCA Pierce kit (ThermoFisher Scientific). The lysates were stored at −80 °C until further processing. […] After repeated washes (TBS-T), the proteins were detected with HRP-conjugated anti-rabbit antibodies (1:4000, RT, 2 h) (Cell Signaling Technology), and the blots were incubated with Clarity Max ECL Western Blotting Substrate (Bio-Rad). Blot images and chemiluminescence signals were captured using a ChemiDoc MP Imaging System, and densitometry values were calculated using the Image Lab software (Bio-Rad). […]

exTrkB = target: T2, exTrkB (Homo sapiens, UniProt Q16620); test: Ligand-induced exTrkB dimerization assay (native electrophoresis); assay type: biochemical; settings: exTrkB:ligand 1:1, non-reducing conditions
T2 construct: human TrkB receptor (exTrkB), residues 1−430, was cloned into the pCMV2 expression vector; made in house; host or cells: ExpiCHO-S cells
Method: The native exTrkB, BDNF, and tested compounds were separately diluted with PBS (pH 7.4) to a final concentration of 2.5 μM. Then, exTrkB, BDNF, or the tested compound were mixed (1:1 v/v) and incubated at 25 °C for 10 min, and 2X Sample Buffer (0.6 M Tris, 20% glycerol, 0.02% Bromophenol Blue, pH 6.8) was added to the samples. Afterwards, the samples were loaded into Stain-Free gels (10% Mini-PROTEAN® TGX Stain-Free™ Protein Gels; Bio-Rad, Hercules, CA, USA) and separated in non-reducing conditions using SDS-free electrophoresis buffer (192 mM glycine, 25 mM Tris; pH 8.3). Visualization of the protein bands was performed using a ChemiDoc MP Imaging System (Bio-Rad).

T1 sequence (Q63604 32-821): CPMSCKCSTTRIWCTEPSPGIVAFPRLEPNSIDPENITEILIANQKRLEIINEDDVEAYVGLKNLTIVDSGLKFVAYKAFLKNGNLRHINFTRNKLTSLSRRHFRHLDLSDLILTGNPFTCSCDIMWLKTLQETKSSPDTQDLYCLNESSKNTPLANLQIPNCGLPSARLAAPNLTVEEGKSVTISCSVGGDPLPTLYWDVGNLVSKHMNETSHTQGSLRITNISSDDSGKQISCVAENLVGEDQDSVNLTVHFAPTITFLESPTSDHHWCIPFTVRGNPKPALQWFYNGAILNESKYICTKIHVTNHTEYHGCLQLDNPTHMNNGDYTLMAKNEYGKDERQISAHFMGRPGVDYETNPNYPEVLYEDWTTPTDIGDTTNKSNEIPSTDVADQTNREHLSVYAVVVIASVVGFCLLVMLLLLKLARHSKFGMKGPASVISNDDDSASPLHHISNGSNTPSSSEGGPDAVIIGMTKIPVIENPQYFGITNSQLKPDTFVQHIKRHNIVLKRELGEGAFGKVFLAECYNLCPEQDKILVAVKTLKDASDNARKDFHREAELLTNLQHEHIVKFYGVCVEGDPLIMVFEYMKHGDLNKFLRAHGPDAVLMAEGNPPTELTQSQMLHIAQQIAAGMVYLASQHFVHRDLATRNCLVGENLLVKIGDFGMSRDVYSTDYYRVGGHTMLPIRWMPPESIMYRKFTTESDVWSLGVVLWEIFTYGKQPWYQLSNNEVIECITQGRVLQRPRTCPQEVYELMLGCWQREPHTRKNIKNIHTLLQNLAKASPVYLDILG
T2 sequence (Q16620 32-430): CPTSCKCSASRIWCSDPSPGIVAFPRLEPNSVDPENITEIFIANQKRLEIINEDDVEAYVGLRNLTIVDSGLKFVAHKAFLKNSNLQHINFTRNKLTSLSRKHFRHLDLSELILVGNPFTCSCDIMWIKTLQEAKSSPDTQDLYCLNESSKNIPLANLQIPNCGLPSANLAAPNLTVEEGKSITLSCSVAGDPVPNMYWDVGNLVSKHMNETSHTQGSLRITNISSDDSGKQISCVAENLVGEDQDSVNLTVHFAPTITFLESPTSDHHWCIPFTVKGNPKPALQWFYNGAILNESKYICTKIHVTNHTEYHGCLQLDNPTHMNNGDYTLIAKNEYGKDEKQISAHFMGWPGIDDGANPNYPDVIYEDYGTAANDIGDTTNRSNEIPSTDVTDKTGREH

Molecule: O=c1cc(-c2ccccc2)oc2c(O)c(O)ccc12 [7,8-DHF, 7,8-dihydroxyflavone]
Orthosteric activity (induction of TrkB phosphorylation) (TrkB receptor): failed to show any activity; also recorded: does not occur
solubility kinetic at 4 h (physchem): 303 µM (≈ 77 µg/mL)

Molecule: C=CC(C)(C)c1[nH]c2ccccc2c1C1=C(O)C(=O)C(c2c[nH]c3c(CC=C(C)C)cccc23)=C(O)C1=O [DMAQ-B1]
Phosphorylation of ERK1/2 and Akt1 (ERK1/2 and Akt1): significantly induce

TrkB Dimerization (exTrkB): YES
B1: BDNF: Brain-derived neurotrophic factor, endogenous TrkB receptor agonist (protein, UniProt P23560 19-247, looked up)
Neurotrophic factor BDNF …: APMKEANIRGQGGLAYPGVRTHGTLESVNGPKAGSRGLTSLADTFEHVIEELLDEDQKVRPNEENNKDADLYTSRVMLSSQVPLEPPLLFLLEEYKNYLDAANMSMRVRRHSDPARRGELSVCDSISEWVTAADKKTAVDMSGGTVTVLEKVPVSKGQLKQYFYETKCNPMGYTKEGCRGIDKRHWNSQCRTTQSYVRALTMDSKKRIGWRFIRIDTSCVCTLTIKRGR
